{"source": "BindingDB's records for patent US20240140938", "about": "(Merck Sharp & Dohme, 2024)", "target": "T1, Diacylglycerol O-acyltransferase 2 (Homo sapiens, UniProt Q96PD7)", "T1 sequence (Q96PD7 whole entry)": "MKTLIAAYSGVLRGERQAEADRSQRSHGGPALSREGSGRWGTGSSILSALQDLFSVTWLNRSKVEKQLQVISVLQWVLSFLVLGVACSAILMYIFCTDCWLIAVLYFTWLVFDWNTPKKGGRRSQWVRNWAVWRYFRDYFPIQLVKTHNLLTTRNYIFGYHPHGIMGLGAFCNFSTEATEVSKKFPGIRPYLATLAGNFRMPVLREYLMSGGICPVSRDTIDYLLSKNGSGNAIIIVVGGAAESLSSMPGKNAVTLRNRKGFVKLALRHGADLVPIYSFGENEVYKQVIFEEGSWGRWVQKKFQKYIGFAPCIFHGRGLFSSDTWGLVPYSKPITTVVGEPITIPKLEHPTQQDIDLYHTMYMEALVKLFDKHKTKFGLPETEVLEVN", "assay": "DGAT2 Enzymatic Activity Assay", "procedure": "DGAT2 activity was determined by measuring the amount of enzymatic product 13C18-triolein (13C-1,2,3-Tri(cis-9-octadecenoyl)glycerol) using the membrane prep mentioned above. The assay was carried out in ABgene 384-well assay plates in a final volume of 25 μL at rt.", "data": [{"smiles": "CC(C)n1nc(-c2cccc(OC(F)F)c2)c2c1C[C@H](C(=O)NC1(C)CS(=O)(=O)C1)CC2", "note": "[US20240140938, Example 26]", "values": [{"measurement": "IC50", "value": 0.319, "unit": "µM"}]}, {"smiles": "CN1CCC(n2nc(-c3cccc(OC(F)F)c3)c3c2C[C@H](C(=O)N[C@]2(C)CCS(=O)(=O)C2)CC3)CC1", "note": "[US20240140938, Example 72]", "values": [{"measurement": "IC50", "value": "> 10", "unit": "µM"}]}, {"smiles": "CC(C)n1nc(-c2cccc(-n3cccn3)c2)c2c1C[C@H](C(=O)NC1(C)CS(=O)(=O)C1)CC2", "note": "[US20240140938, Example 97]", "values": [{"measurement": "IC50", "value": "> 10", "unit": "µM"}]}, {"smiles": "CC(C)n1nc(-c2cccc(C(C)(F)F)c2)c2c1C[C@H](C(=O)NC1(C)CS(=O)(=O)C1)CC2", "note": "[US20240140938, Example 102]", "values": [{"measurement": "IC50", "value": 8.84, "unit": "µM"}]}]}
